Patent publication US20230085307A1, “PYRIDAZINONE COMPOUND AND HERBICIDE” (NISSAN CHEMICAL CORPORATION, priority 2019, published 2023)

Columns and labels:
[1] = system: barnyard grass; assay: Test Example 4: herbicidal effect by soil treatment (Table 19, symbol H); format: in vivo, barnyard grass (Echinochloa crus-galli)
How it was run: (§1)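 Seeds were sown in sterilized diluvial soil and covered with about 1.5 cm of soil. An emulsion formulation diluted with water to a predetermined herbicide amount was sprayed evenly onto the soil surface. Plants grew in a greenhouse at 25° C. to 30° C., and the effect was scored three weeks after application using criteria from an earlier test.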

[2] = system: chickweed; assay: Test Example 5: herbicidal effect by foliage application, plastic box (Table 20, symbol P); format: in vivo, common chickweed (Stellaria media); conditions: foliage application, three weeks after application
How it was run: (§2)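 Plants sown in sterilized diluvial soil and grown 14 days in a greenhouse at 25° C to 30° C, then sprayed on the foliage with the compound's emulsion diluted in water to a predetermined herbicide amount. Injury to weeds and crops scored three weeks after application on a visual rating scale.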

[3] = system: blackgrass; assay: Test Example 4: herbicidal effect by soil treatment (Table 19, symbol J); format: in vivo, blackgrass (Alopecurus myosuroides)
How it was run: as §1

[4] = system: persian speedwell; assay: Test Example 4: herbicidal effect by soil treatment (Table 19, symbol R); format: in vivo, Persian speedwell (Veronica persica)
How it was run: as §1

[5] = system: Italian ryegrass; assay: Test Example 4: herbicidal effect by soil treatment (Table 19, symbol K); format: in vivo, Italian ryegrass (Lolium multiflorum)
How it was run: as §1

[6] = system: southern crabgrass; assay: Test Example 4: herbicidal effect by soil treatment (Table 19, symbol F); format: in vivo, southern crabgrass (Digitaria ciliaris)
How it was run: as §1

[7] = system: wild oat; assay: Test Example 5: herbicidal effect by foliage application, plastic box (Table 20, symbol I); format: in vivo, wild oat (Avena fatua); conditions: foliage application, three weeks after application
How it was run: as §2

[8] = system: wild oat; assay: Test Example 4: herbicidal effect by soil treatment (Table 19, symbol I); format: in vivo, wild oat (Avena fatua)
How it was run: as §1

[9] = system: blackgrass; assay: Test Example 5: herbicidal effect by foliage application, plastic box (Table 20, symbol J); format: in vivo, blackgrass (Alopecurus myosuroides); conditions: foliage application, three weeks after application
How it was run: as §2

[10] = system: persian speedwell; assay: Test Example 5: herbicidal effect by foliage application, plastic box (Table 20, symbol R); format: in vivo, Persian speedwell (Veronica persica); conditions: foliage application, three weeks after application
How it was run: as §2

[11] = system: lambsquarters; assay: Test Example 4: herbicidal effect by soil treatment (Table 19, symbol O); format: in vivo, lambsquarters (Chenopodium album)
How it was run: as §1

[12] = system: green foxtail; assay: Test Example 5: herbicidal effect by foliage application, plastic box (Table 20, symbol G); format: in vivo, green foxtail (Setaria viridis); conditions: foliage application, three weeks after application
How it was run: as §2

[13] = system: lambsquarters; assay: Test Example 5: herbicidal effect by foliage application, plastic box (Table 20, symbol O); format: in vivo, lambsquarters (Chenopodium album); conditions: foliage application, three weeks after application
How it was run: as §2

[14] = system: southern crabgrass; assay: Test Example 5: herbicidal effect by foliage application, plastic box (Table 20, symbol F); format: in vivo, southern crabgrass (Digitaria ciliaris); conditions: foliage application, three weeks after application
How it was run: as §2

[15] = system: velvetleaf; assay: Test Example 5: herbicidal effect by foliage application, plastic box (Table 20, symbol M); format: in vivo, velvetleaf (Abutilon theophrasti); conditions: foliage application, three weeks after application
How it was run: as §2

[16] = system: windgrass; assay: Test Example 5: herbicidal effect by foliage application, plastic box (Table 20, symbol L); format: in vivo, windgrass (Apera spica-venti); conditions: foliage application, three weeks after application
How it was run: as §2

[17] = system: barnyard grass; assay: Test Example 3: herbicidal effect by foliage application, Wagner pot (Table 18, symbol H); format: in vivo, barnyard grass (Echinochloa crus-galli)
How it was run: (§3)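 Plants were sown in alluvial soil held under 0.1–0.5 cm standing water and grown 14 days in a greenhouse at 25–30 °C. An emulsifiable formulation, water-diluted to the set dose, was then sprayed onto the foliage, and effects were scored three weeks later using previously defined criteria.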

[18] = system: green foxtail; assay: Test Example 4: herbicidal effect by soil treatment (Table 19, symbol G); format: in vivo, green foxtail (Setaria viridis)
How it was run: as §1

[19] = system: false cleavers; assay: Test Example 4: herbicidal effect by soil treatment (Table 19, symbol Q); format: in vivo, false cleavers (Galium spurium)
How it was run: as §1

[20] = system: redroot pigweed; assay: Test Example 4: herbicidal effect by soil treatment (Table 19, symbol N); format: in vivo, redroot pigweed (Amaranthus retroflexus)
How it was run: as §1

[21] = system: redroot pigweed; assay: Test Example 5: herbicidal effect by foliage application, plastic box (Table 20, symbol N); format: in vivo, redroot pigweed (Amaranthus retroflexus); conditions: foliage application, three weeks after application
How it was run: as §2

[22] = system: Chinese sprangletop; assay: Test Example 3: herbicidal effect by foliage application, Wagner pot (Table 18, symbol D); format: in vivo, chinese sprangletop (Leptochloa chinensis)
How it was run: as §3

[23] = system: barnyard grass; assay: Test Example 5: herbicidal effect by foliage application, plastic box (Table 20, symbol H); format: in vivo, barnyard grass (Echinochloa crus-galli); conditions: foliage application, three weeks after application
How it was run: as §2

[24] = system: chickweed; assay: Test Example 4: herbicidal effect by soil treatment (Table 19, symbol P); format: in vivo, common chickweed (Stellaria media)
How it was run: as §1

[25] = system: rice flat sedge; assay: Test Example 3: herbicidal effect by foliage application, Wagner pot (Table 18, symbol E); format: in vivo, rice flat sedge (Cyperus iria)
How it was run: as §3

[26] = system: Italian ryegrass; assay: Test Example 5: herbicidal effect by foliage application, plastic box (Table 20, symbol K); format: in vivo, Italian ryegrass (Lolium multiflorum); conditions: foliage application, three weeks after application
How it was run: as §2

[27] = system: velvetleaf; assay: Test Example 4: herbicidal effect by soil treatment (Table 19, symbol M); format: in vivo, velvetleaf (Abutilon theophrasti)
How it was run: as §1

[28] = system: windgrass; assay: Test Example 4: herbicidal effect by soil treatment (Table 19, symbol L); format: in vivo, windgrass (Apera spica-venti)
How it was run: as §1

[29] = amount of applied herbicide 320 g/ha

SMILES: CCCC(=O)Oc1c(C)nn(C)c(=O)c1-c1c(-c2ccc(F)cc2SC)sc2ccccc12 [1-064]
- herbicidal effect rating, H: barnyard grass [1, 29]: 0 (Herbicidal rate of 5% or less (almost no effect))
- herbicidal effect grade, P: chickweed ([2]; 320 g/ha): 4 (Herbicidal rate of 70% or more and less than 90%)
- herbicidal effect rating, J: blackgrass [3, 29]: 0 (Herbicidal rate of 5% or less (almost no effect))
- herbicidal effect rating, R: persian speedwell [4, 29]: 0 (Herbicidal rate of 5% or less (almost no effect))
- herbicidal effect rating, K: Italian ryegrass [5, 29]: 0 (Herbicidal rate of 5% or less (almost no effect))
- herbicidal effect rating, F: southern crabgrass [6, 29]: 0 (Herbicidal rate of 5% or less (almost no effect))
- herbicidal effect grade, I: wild oat ([7]; 320 g/ha): 0 (Herbicidal rate of 5% or less (almost no effect))
- herbicidal effect rating, I: wild oat [8, 29]: 0 (Herbicidal rate of 5% or less (almost no effect))
- herbicidal effect grade, J: blackgrass ([9]; 320 g/ha): 0 (Herbicidal rate of 5% or less (almost no effect))
- herbicidal effect grade, R: persian speedwell ([10]; 320 g/ha): 0 (Herbicidal rate of 5% or less (almost no effect))
- herbicidal effect rating, O: lambsquarters [11, 29]: 0 (Herbicidal rate of 5% or less (almost no effect))
- herbicidal effect grade, G: green foxtail ([12]; 320 g/ha): 0 (Herbicidal rate of 5% or less (almost no effect))
- herbicidal effect grade, O: lambsquarters ([13]; 320 g/ha): 0 (Herbicidal rate of 5% or less (almost no effect))
- herbicidal effect grade, F: southern crabgrass ([14]; 320 g/ha): 0 (Herbicidal rate of 5% or less (almost no effect))
- herbicidal effect grade, M: velvetleaf ([15]; 320 g/ha): 0 (Herbicidal rate of 5% or less (almost no effect))
- herbicidal effect grade, L: windgrass ([16]; 320 g/ha): 0 (Herbicidal rate of 5% or less (almost no effect))
- herbicidal effect on H (barnyard grass), rating 0-5 ([17]; 320 g/ha): 3 (Herbicidal rate of 40% or more and less than 70%)
- herbicidal effect rating, G: green foxtail [18, 29]: 0 (Herbicidal rate of 5% or less (almost no effect))
- herbicidal effect rating, Q: false cleavers [19, 29]: 0 (Herbicidal rate of 5% or less (almost no effect))
- herbicidal effect rating, N: redroot pigweed [20, 29]: 0 (Herbicidal rate of 5% or less (almost no effect))
- herbicidal effect grade, N: redroot pigweed ([21]; 320 g/ha): 0 (Herbicidal rate of 5% or less (almost no effect))
- herbicidal effect on D (Chinese sprangletop), rating 0-5 ([22]; 320 g/ha): 0 (Herbicidal rate of 5% or less (almost no effect))
- herbicidal effect grade, H: barnyard grass ([23]; 320 g/ha): 0 (Herbicidal rate of 5% or less (almost no effect))
- herbicidal effect rating, P: chickweed [24, 29]: 3 (Herbicidal rate of 40% or more and less than 70%)
- herbicidal effect on E (rice flat sedge), rating 0-5 ([25]; 320 g/ha): 3 (Herbicidal rate of 40% or more and less than 70%)
- herbicidal effect grade, K: Italian ryegrass ([26]; 320 g/ha): 0 (Herbicidal rate of 5% or less (almost no effect))
- herbicidal effect rating, M: velvetleaf [27, 29]: 0 (Herbicidal rate of 5% or less (almost no effect))
- herbicidal effect rating, L: windgrass [28, 29]: 0 (Herbicidal rate of 5% or less (almost no effect))

SMILES: COc1ccc(-c2sc3ccccc3c2-c2c(O)c(OC)nn(C)c2=O)cc1OC [1-182]
- H: barnyard grass, herbicidal effect rating ([1]; AAH 80 g/ha): 0 (Herbicidal rate of 5% or less (almost no effect))
- P: chickweed, herbicidal effect ([2]; AAH 80 g/ha): 5 (Herbicidal rate of 90% or more (almost completely withered))
- J: blackgrass, herbicidal effect rating ([3]; AAH 80 g/ha): 0 (Herbicidal rate of 5% or less (almost no effect))
- R: persian speedwell, herbicidal effect rating ([4]; AAH 80 g/ha): 5 (Herbicidal rate of 90% or more (almost completely withered))
- K: Italian ryegrass, herbicidal effect rating ([5]; AAH 80 g/ha): 0 (Herbicidal rate of 5% or less (almost no effect))
- F: southern crabgrass, herbicidal effect rating ([6]; AAH 80 g/ha): 1 (Herbicidal rate of 5% or more and less than 20%)
- I: wild oat, herbicidal effect ([7]; AAH 80 g/ha): 0 (Herbicidal rate of 5% or less (almost no effect))
- I: wild oat, herbicidal effect rating ([8]; AAH 80 g/ha): 0 (Herbicidal rate of 5% or less (almost no effect))
- J: blackgrass, herbicidal effect ([9]; AAH 80 g/ha): 0 (Herbicidal rate of 5% or less (almost no effect))
- R: persian speedwell, herbicidal effect ([10]; AAH 80 g/ha): 5 (Herbicidal rate of 90% or more (almost completely withered))
- O: lambsquarters, herbicidal effect rating ([11]; AAH 80 g/ha): 4 (Herbicidal rate of 70% or more and less than 90%)
- G: green foxtail, herbicidal effect ([12]; AAH 80 g/ha): 4 (Herbicidal rate of 70% or more and less than 90%)
- O: lambsquarters, herbicidal effect ([13]; AAH 80 g/ha): 5 (Herbicidal rate of 90% or more (almost completely withered))
- F: southern crabgrass, herbicidal effect ([14]; AAH 80 g/ha): 3 (Herbicidal rate of 40% or more and less than 70%)
- M: velvetleaf, herbicidal effect ([15]; AAH 80 g/ha): 4 (Herbicidal rate of 70% or more and less than 90%)
- L: windgrass, herbicidal effect ([16]; AAH 80 g/ha): 0 (Herbicidal rate of 5% or less (almost no effect))
- herbicidal effect on H (barnyard grass), rating 0-5 ([17]; 80 g/ha): 4 (Herbicidal rate of 70% or more and less than 90%)
- G: green foxtail, herbicidal effect rating ([18]; AAH 80 g/ha): 5 (Herbicidal rate of 90% or more (almost completely withered))
- Q: false cleavers, herbicidal effect rating ([19]; AAH 80 g/ha): 0 (Herbicidal rate of 5% or less (almost no effect))
- N: redroot pigweed, herbicidal effect rating ([20]; AAH 80 g/ha): 5 (Herbicidal rate of 90% or more (almost completely withered))
- N: redroot pigweed, herbicidal effect ([21]; AAH 80 g/ha): 3 (Herbicidal rate of 40% or more and less than 70%)
- herbicidal effect on D (Chinese sprangletop), rating 0-5 ([22]; 80 g/ha): 3 (Herbicidal rate of 40% or more and less than 70%)
- H: barnyard grass, herbicidal effect ([23]; AAH 80 g/ha): 3 (Herbicidal rate of 40% or more and less than 70%)
- P: chickweed, herbicidal effect rating ([24]; AAH 80 g/ha): 4 (Herbicidal rate of 70% or more and less than 90%)
- herbicidal effect on E (rice flat sedge), rating 0-5 ([25]; 80 g/ha): 5 (Herbicidal rate of 90% or more (almost completely withered))
- K: Italian ryegrass, herbicidal effect ([26]; AAH 80 g/ha): 3 (Herbicidal rate of 40% or more and less than 70%)
- M: velvetleaf, herbicidal effect rating ([27]; AAH 80 g/ha): 1 (Herbicidal rate of 5% or more and less than 20%)
- L: windgrass, herbicidal effect rating ([28]; AAH 80 g/ha): 0 (Herbicidal rate of 5% or less (almost no effect))
